According to patent publication US20250064889A1, “TRPV6 INHIBITORS AND COMBINATION THERAPIES FOR TREATING CANCERS” (Soricimed Biopharma Inc., priority 2017, published 2025):

Experiments:
calcineurin = assay: Calcineurin Cellular (PP2B) Phosphate Activity Assay on BxPC-3 cell lysates; assay type: cell-based; details: 500 μM, at 24 hrs and 72 hrs, p<0.05
Description: (§1) • Drug Dosing: Cells were plated at 5×10^5 cells/well in a 6-well plate. After 24 hrs incubation the BxPC-3 cells were dosed daily with NT (s.f. PBS) or 500 μM SOR-C13 (prepared fresh daily in f.s. PBS) for 72 hrs. Once dosed cells were incubated at 37° C./5% CO2 for the duration dosing period of 72 hrs. Dosing was repeated every 24 hrs for 72 hrs. Every 24 hrs protein lysates (RIPA) were prepared from cells and de-salted (7 kDa MWCO, Zebra spin columns, Fisher). Bel-2 assay was a 96 hrs dosing parameter. • Plate Assay (Calnr): Cellular Calcineurin concentration was monitored at 620 nm using the Calcineurin Cellular (PP2B) Phosphate Activity Assay kit (EMD Millipore). Results were interpolated from standard curve for amount of Phosphate released. • Plate Assay (Bcl-2): Human total Bel-2 concentration was performed using DuoSet® Human Total BcL-2 sandwich ELISA (R&D Systems). Bel-2 concentration for BxPC-3 cells was extrapolated from (4-PL) standard curve Bel-2.

MMP-9 = MMP-9 Cytoglow ELISA on BxPC-3 cells; assay type: cell-based; details: BxPC-3 cells treated for 96 hr daily at 100 and 500 μM, p<0.05
Description: • Drug Dosing: BxPC-3 cells were plated at 2×10^4 cells/well in a 96-well plate and cultured overnight. Cells were dosed daily with NT (s.f. PBS) 100, 500 μM SOR-C13 (prepared fresh daily in f.s. PBS) for 96 hrs. Dosing was repeated every 24 hrs for 96 hrs. • Plate Assay: MMP-9 concentration was monitored using the MMP-9 Cytoglow ELISA (Assay Biotech). Cells were fixed to plate, and ELISA was performed, MMP-9 expression was calculated as % of No Treatment control.

Human total Bel-2 = assay: Human Total Bcl-2 sandwich ELISA on BxPC-3 cells; assay type: cell-based; details: 500 μM, at 96 hrs, p<0.05
Description: as §1

[1] = test system: NFAT signalling molecular pathway targets (Calnr, Bel-2, ATX, MMP-9 and NFAT); assay: In vitro dosing experiments, NFAT signalling molecular pathway targets (summary); assay type: cell-based
Description: (§2) • Transfection: T-47D cells were plated at 1×10^4 cells/well in a 96-well plate and cultured overnight. Cells were transfected for 24 hrs at 37° C./5% CO2 using Liptofectamine 3000 (0.3 μL/well)/P3000 Reagent (1 μL/well) in Opti-MEM medium and with a 500 ng of NFAT dual reporter plasmid (Cignal NFAT Reporter, Qiagen). • Drug Dosing: After transfection the T-47D cells were dosed daily with NT (s.f. PBS) or 500 μM SOR-C13 (prepared fresh daily in f.s. PBS) for 72 hrs. Once dosed the 96-well plate was incubated at 37° C./5% CO2 for the duration dosing period of 72 hrs. Dosing was repeated every 24 hrs for 72 hrs. • Plate Assay: Luminescence was monitored using Dual-Glo® Luciferase assay (Promega) to measure changes in NFAT luminescence expression (related to pKC pathway) between PBS and SOR-C13 treated T-47D cells. Firefly and Renilla Luminescence was measured using a molecular devices microplate reader.
• Drug Dosing: Cells were plated at 5×10^5 cells/well in a 6-well plate. After 24 hrs incubation the BxPC-3 cells were dosed daily with NT (s.f. PBS) or 500 μM SOR-C13 (prepared fresh daily in f.s. PBS) for 72 hrs. […] Bel-2 assay was a 96 hrs dosing parameter. • Plate Assay (Calnr): Cellular Calcineurin concentration was monitored at 620 nm using the Calcineurin Cellular (PP2B) Phosphate Activity Assay kit (EMD Millipore). […]

NFAT activation = assay: In vitro NFAT analysis: NFAT dual reporter luciferase assay in T-47D cells; assay type: cell-based; details: 500 μM daily for 72 hrs, p<0.05
Description: as §2

[2] = test system: T-47D breast cancer cell lines; assay: RT-qPCR TaqMan Array, 187 gene panel, T-47D cells treated with SOR-C13; assay type: cell-based; details: 500 μM for 120 hrs, genes with >1.5 fold change
Description: • mRNA Expression: The expression NFAT/Ca^2+ related genes mRNA levels were determined in 6 Cancer Cell lines treated with SOR-C13 (500 μM) for 120 hrs using a qPCR TaqMan® Array panel consisting of 187 genes (ThermoFisher). Cells were harvested with lysis buffer from the PureLink RNA Mini Kit and then RNA isolation carried out as per manufacturers instructions (ThermoFisher Scientific). RNA was quantified using the Qubit Fluorometer. Reverse Transcription was performed and cDNA created using SuperScript™ IV VILO Master Mix with ezDNase Enzyme (ThermoFisher Scientific). Each port of the Custom TaqMan® Array Card was loaded with 500 ng of cDNA and 1× TaqMan Fast Advanced Master Mix. RT-qPCR was performed using the Quantstudio™ 7Flex and analysis performed by ThermoFisher cloud software using GUSB and HRPT1 as endogenous controls.

[3] = test system: BxPC-3 pancreatic cancer cells; assay: Combination with immune checkpoint modulator: BxPC-3 cells co-incubated with activated Jurkat cells, viability and IL-2; assay type: cell-based; details: BxPC-3 pre-treated with INF-γ, 100 μM SOR-C13 48 hours
Description: Experiments are performed to evaluate the effect of TRPV6 inhibitors in combination with immune checkpoint modulators such as PD-1 inhibitors (see Yang et al., Invest Ophthalmol Vis Sci. 2008 June; 49(6): 2518-2525; and FIG. 2). Briefly, BxPC-3 pancreatic cancer cells are treated with INF-γ for 48 hours to induce the cell surface expression of PD-L1. Once activated, sets of BxPC-3 cells are treated with 0 or 100 μM of SOR-C13 (KEFLHPSKVDLPR; SEQ ID NO:2) for 48 hours. Immune checkpoint modulatory test agents such as pembrolizumab (KEYTRUDA*) are added at various concentrations, along with activated Jurkat cells (i.e., cytotoxic T-cells), and co-incubated with the BxPC-3 cells for 48 hours.
Viability and IL-2 production is determined 48 hours later. Activated Jurkat cells produce IL-2 which mediates the killing of BxPC-3 cells. Cell death is quantified using the Cell Titre Glow Cellular Viability Assay. The effect of SOR-C13 on IL-2 mediated killing of BxPC-3 cells is compared to IL-2 mediated killing of BxPC-3 cells in the absence of SOR-C13.

[4] = Fu et al. 2017; cited from earlier work

## KEFLHPSKVDLPR [SOR-C13]
calcineurin
  calcineurin activity: inhibition
MMP-9
  MMP-9 expression, % from PBS control: reduction
Human total Bel-2
  Bel-2 expression: significant decrease
[1]
  NFAT signalling molecular pathway targets (Calnr, Bel-2, ATX, MMP-9 and NFAT) with treatment: decreases
NFAT activation
  NFAT activation, SOR-C13-treated cells vs. PBS: significant difference
[2]
  NFATC1, MMP2, GSK3 and RCAN1 mRNA expression (Calcineurin/NFAT pathway): affected
[3]
  anti-cancer activity of immune checkpoint modulators such as pembrolizumab on addition of SOR-C13: increases
[4]
  anti-tumour activity: promising anti-tumour activity
  tolerability and safety profile: good tolerability and manageable safety profile
